Experimental data: ChEMBL document CHEMBL1201862, “PubChem BioAssay data set” (2004)
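Where inhibition never reached the appropriate level, the endpoint shown equals the highest concentration tested. Otherwise, values were interpolated linearly from a five-concentration, 48-hour dose response in 96-well plates. At the GI50, growth is halved.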 Calls of active or inactive are those of the source. No stated cut-off is given here; in the data, active = GI50 up to about 1.1 µM and inactive = higher.

What was measured:
Assay in all cases: DTP human tumour cell line panel, 48 h
NCI-H23 = tested on: NCI-H23
RPMI-8226 = tested on: RPMI-8226
COLO 205 = tested on: COLO 205
CCRF-CEM = tested on: CCRF-CEM
LXFL 529 = tested on: LXFL 529
M19-MEL = tested on: M19-MEL
SK-OV-3 = tested on: SK-OV-3
OVCAR-4 = tested on: OVCAR-4
NCI-H460 = tested on: NCI-H460
KM12 = tested on: KM12
A549 = tested on: A549
DLD-1 = tested on: DLD-1
SF-295 = tested on: SF-295
TK-10 = tested on: TK-10
SNB-75 = tested on: SNB-75
DMS-273 = tested on: DMS-273
NCI-H226 = tested on: NCI-H226
MCF7 = tested on: MCF7

Row | SMILES | GI50 (NCI-H23) | GI50 (RPMI-8226) | GI50 (COLO 205) | GI50 (CCRF-CEM) | GI50 (LXFL 529) | GI50 (M19-MEL) | GI50 (SK-OV-3) | GI50 (OVCAR-4) | GI50 (NCI-H460) | GI50 (KM12) | GI50 (A549) | GI50 (DLD-1) | GI50 (SF-295) | GI50 (TK-10) | GI50 (SNB-75) | GI50 (DMS-273) | GI50 (NCI-H226) | GI50 (MCF7)
1 | COc1cc(/C=C2/C(=O)N(C(=O)c3ccc(Cl)cc3)N=C2C)cc(OC)c1OC | > 100 µM (inactive) | > 100 µM (inactive) | > 100 µM (inactive) | > 100 µM (inactive) | > 100 µM (inactive) | > 100 µM (inactive) | > 100 µM (inactive) | > 100 µM (inactive) | > 100 µM (inactive) | > 100 µM (inactive) | > 100 µM (inactive) | > 100 µM (inactive) | > 100 µM (inactive) | > 100 µM (inactive) |  |  |  | 
2 | COc1cc(/C=C(\C)c2ccc3c(c2)OCO3)cc(OC)c1OC | 37.5 µM (inactive) |  | 18.5 µM (inactive) | 19.8 µM (inactive) | 14.7 µM (inactive) | 31.4 µM (inactive) | 28 µM (inactive) | 32.5 µM (inactive) | 34.2 µM (inactive) | 44.5 µM (inactive) | 18.5 µM (inactive) | 18.5 µM (inactive) | 25.2 µM (inactive) | 47 µM (inactive) | 5 µM (inactive) | 26 µM (inactive) | 33.7 µM (inactive) | 
3 | CN(C)CCNC(=O)c1cccc2ccc(-c3ccc(Br)cc3)nc12 | 3.47 µM (inactive) | 1.29 µM (inactive) | 0.944 µM (active) | 1.09 µM (active) |  | 2.24 µM (inactive) | 2.82 µM (inactive) | 2.76 µM (inactive) | 0.767 µM (active) | 3.45 µM (inactive) | 1.09 µM (active) | 2.59 µM (inactive) | 3.76 µM (inactive) |  | 3.27 µM (inactive) | 1.16 µM (inactive) | 1.89 µM (inactive) | 2.92 µM (inactive)
4 | CC1=C2C=CC(=O)C[C@@]2(C)CCC1 | > 100 µM (inactive) | > 100 µM (inactive) | > 100 µM (inactive) | > 100 µM (inactive) | > 100 µM (inactive) | > 100 µM (inactive) | > 100 µM (inactive) | > 100 µM (inactive) | > 100 µM (inactive) | > 100 µM (inactive) | > 100 µM (inactive) | > 100 µM (inactive) | > 100 µM (inactive) | > 100 µM (inactive) | 69.2 µM (inactive) | > 100 µM (inactive) |  | 
5 | CC(=O)OC1(C#N)CC2OC1C1C2N=NN1C(=O)OC(C)(C)C (stereo not given) | 29.6 µM (inactive) | 39.9 µM (inactive) | > 100 µM (inactive) | 15.2 µM (inactive) | 33 µM (inactive) | 16.5 µM (inactive) |  | 65.6 µM (inactive) | 32 µM (inactive) |  | 34.4 µM (inactive) | 20.4 µM (inactive) |  | 20.4 µM (inactive) | 31.8 µM (inactive) | 29 µM (inactive) |  | 
6 | COC(=O)CCC(NC(=S)N/N=C(\C)c1cccs1)C(=O)OC (stereo not given) | > 100 µM (inactive) |  | > 100 µM (inactive) |  | > 100 µM (inactive) | > 100 µM (inactive) | > 100 µM (inactive) | > 100 µM (inactive) | > 100 µM (inactive) | > 100 µM (inactive) | > 100 µM (inactive) | > 100 µM (inactive) | > 100 µM (inactive) | > 100 µM (inactive) | > 100 µM (inactive) | > 100 µM (inactive) | > 100 µM (inactive) | 
7 | Cc1nc2ccccc2c(=O)n1/N=C(\N=N\c1ccccc1Cl)c1ccccc1Cl | 34 µM (inactive) | 30.1 µM (inactive) | > 100 µM (inactive) | 77.3 µM (inactive) | 52.1 µM (inactive) | > 100 µM (inactive) | 22.9 µM (inactive) |  | 73.5 µM (inactive) |  | > 100 µM (inactive) | 67.5 µM (inactive) |  | 48 µM (inactive) |  | 44.8 µM (inactive) |  | 
8 | CCCN1CN(C(C(=O)N[C@@H]2C(=O)N3C(C(=O)O)=C(C)CSC23)c2ccccc2)CSC1=S (stereo not given in full) | > 100 µM (inactive) | 40.9 µM (inactive) | 47.1 µM (inactive) | 95.1 µM (inactive) | > 100 µM (inactive) | > 100 µM (inactive) | > 100 µM (inactive) | > 100 µM (inactive) | 42.5 µM (inactive) | > 100 µM (inactive) | > 100 µM (inactive) | > 100 µM (inactive) | > 100 µM (inactive) | > 100 µM (inactive) | > 100 µM (inactive) | > 100 µM (inactive) |  | 
9 | CCCCC(C)/C=C/C(O)=C1\C(=O)O/C(=C\C(=O)O)C1=O (stereo not given) | > 100 µM (inactive) | > 100 µM (inactive) | > 100 µM (inactive) | > 100 µM (inactive) | > 100 µM (inactive) |  | > 100 µM (inactive) | > 100 µM (inactive) | > 100 µM (inactive) | > 100 µM (inactive) | > 100 µM (inactive) |  | > 100 µM (inactive) | > 100 µM (inactive) | > 100 µM (inactive) | > 100 µM (inactive) | > 100 µM (inactive) | 
10 | COc1ccc(C2COc3c(ccc(O)c3C)C2)cc1OC (stereo not given) | 67.8 µM (inactive) | 17.7 µM (inactive) | 61.7 µM (inactive) | 40.7 µM (inactive) |  | 83 µM (inactive) | > 187 µM (inactive) | 89.3 µM (inactive) | 62.7 µM (inactive) | 102 µM (inactive) | 60.8 µM (inactive) | 42 µM (inactive) | 58.9 µM (inactive) |  | 38.1 µM (inactive) | 57.4 µM (inactive) | 57.5 µM (inactive) | 81.7 µM (inactive)
11 | CC(C)(O)[C@H](CCO)O[Si](c1ccccc1)(c1ccccc1)C(C)(C)C | > 10 µM (inactive) | 10.4 µM (inactive) | 14.4 µM (inactive) | 10.6 µM (inactive) | 11.6 µM (inactive) | 14.9 µM (inactive) | 12.1 µM (inactive) |  | 11.2 µM (inactive) | 11.6 µM (inactive) | 7.35 µM (inactive) | 8.93 µM (inactive) | 6.35 µM (inactive) | 13.2 µM (inactive) | 10.9 µM (inactive) | 10.1 µM (inactive) |  | 
12 | NNc1nnc(-c2ccccc2)nc1Cc1ccccc1 | 6.03 µM (inactive) |  | 7.53 µM (inactive) | 2.64 µM (inactive) | 3.85 µM (inactive) | 7.41 µM (inactive) | 14.3 µM (inactive) | 9.14 µM (inactive) | 4.17 µM (inactive) | 8.3 µM (inactive) | 6.41 µM (inactive) | 13.4 µM (inactive) |  | 9.35 µM (inactive) |  | 7.26 µM (inactive) | 2.37 µM (inactive) | 
13 | COc1ccc(/C(Cl)=C(\C=O)c2ccccc2)cc1OC | 15.2 µM (inactive) |  | 10.1 µM (inactive) | 15.1 µM (inactive) | 12.4 µM (inactive) | 13.6 µM (inactive) | 70.3 µM (inactive) | 25 µM (inactive) | 28.8 µM (inactive) |  | 38.7 µM (inactive) | 15.1 µM (inactive) | 17.3 µM (inactive) | 21.4 µM (inactive) | 11.6 µM (inactive) | 29.8 µM (inactive) | 21 µM (inactive) | 
14 | COc1ccc(Nc2nc(C#N)c(N)s2)cc1 | 22.5 µM (inactive) | 18.8 µM (inactive) | 35.9 µM (inactive) |  | 31.9 µM (inactive) |  | 34 µM (inactive) | 83.2 µM (inactive) | > 100 µM (inactive) | 29.9 µM (inactive) | 27.2 µM (inactive) | 48.6 µM (inactive) | 29.2 µM (inactive) | 38.2 µM (inactive) | > 100 µM (inactive) | 26.7 µM (inactive) | > 100 µM (inactive) | 
15 | Nc1nc(N)c2ncn(CC(CO)CC(c3ccccc3)P(=O)(O)O)c2n1 (stereo not given) | > 100 µM (inactive) | > 100 µM (inactive) | > 100 µM (inactive) | > 100 µM (inactive) |  | > 100 µM (inactive) | > 100 µM (inactive) |  | > 100 µM (inactive) | > 100 µM (inactive) | > 100 µM (inactive) | > 100 µM (inactive) | > 100 µM (inactive) | > 100 µM (inactive) | > 100 µM (inactive) | > 100 µM (inactive) | > 100 µM (inactive) | 
16 | CCOC(=O)C(C(=O)OCC)P(=S)(S)c1ccccc1 (stereo not given) | > 100 µM (inactive) |  | > 100 µM (inactive) | > 100 µM (inactive) | > 100 µM (inactive) | > 100 µM (inactive) | > 100 µM (inactive) | > 100 µM (inactive) | > 100 µM (inactive) | > 100 µM (inactive) | > 100 µM (inactive) | > 100 µM (inactive) | > 100 µM (inactive) | > 100 µM (inactive) |  | > 100 µM (inactive) | > 100 µM (inactive) | 
17 | OC1CCC[C@@H]1Sc1ccccc1 (stereo not given in full) | > 100 µM (inactive) | > 100 µM (inactive) | > 100 µM (inactive) | > 100 µM (inactive) | > 100 µM (inactive) | > 100 µM (inactive) | > 100 µM (inactive) | > 100 µM (inactive) | > 100 µM (inactive) | > 100 µM (inactive) | > 100 µM (inactive) | > 100 µM (inactive) | > 100 µM (inactive) | > 100 µM (inactive) | > 100 µM (inactive) | > 100 µM (inactive) |  | 
18 | C=C1C(=O)O[C@@H]2OC3(C)CCC4C(C)CCC1C42OO3 (stereo not given in full) | 5.6 µM (inactive) | 1.42 µM (inactive) | 3.46 µM (inactive) | 1.47 µM (inactive) |  | 3.49 µM (inactive) | 20.3 µM (inactive) | 12.6 µM (inactive) | 2.38 µM (inactive) | 3.38 µM (inactive) | 4.99 µM (inactive) | 1.93 µM (inactive) | 3.85 µM (inactive) |  | 3.59 µM (inactive) | 3.41 µM (inactive) | 11.5 µM (inactive) | 3.39 µM (inactive)
